Measurements from publication PMC11233931, “Remodeling tumor‐associated macrophage for anti‐cancer effects by rational design of irreversible inhibition of mitogen‐activated protein kinase‐activated protein kinase 2” (MedComm, 2024).

Experiments:
Assay in all cases: Eurofins kinase selectivity profile against 380 other human recombinant kinases (Table S2)
Assay type in all cases: biochemical
[1] = molecular target: T1, 380 human recombinant protein kinases (Homo sapiens, UniProt Q9UK32); conditions: Rsk4(h), read-out: Inhibition rate (%)
T1 construct: purchased Eurofins (Celle Lévescault)
Summary of the method: (§1)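 Commercial selectivity screen of the test compound against a panel of 380 human recombinant protein kinases, run by an outside contractor at several compound concentrations to check whether its potency was specific for MK2.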

[2] = molecular target: T2, 380 human recombinant protein kinases (Homo sapiens, UniProt Q14680); conditions: MELK(h), read-out: Inhibition rate
T2 construct: purchased Eurofins (Celle Lévescault)
Summary of the method: as §1

[3] = molecular target: T3, 380 human recombinant protein kinases (Homo sapiens, UniProt Q8IZX4); conditions: TAF1L(h), read-out: Inhibition rate (%)
T3 construct: purchased Eurofins (Celle Lévescault)
Summary of the method: as §1

[4] = molecular target: T4, 380 human recombinant protein kinases (Homo sapiens, UniProt Q8IYT8); conditions: ULK2(h), read-out: Inhibition rate (%)
T4 construct: purchased Eurofins (Celle Lévescault)
T4 sequence (Q8IYT8 1-1036): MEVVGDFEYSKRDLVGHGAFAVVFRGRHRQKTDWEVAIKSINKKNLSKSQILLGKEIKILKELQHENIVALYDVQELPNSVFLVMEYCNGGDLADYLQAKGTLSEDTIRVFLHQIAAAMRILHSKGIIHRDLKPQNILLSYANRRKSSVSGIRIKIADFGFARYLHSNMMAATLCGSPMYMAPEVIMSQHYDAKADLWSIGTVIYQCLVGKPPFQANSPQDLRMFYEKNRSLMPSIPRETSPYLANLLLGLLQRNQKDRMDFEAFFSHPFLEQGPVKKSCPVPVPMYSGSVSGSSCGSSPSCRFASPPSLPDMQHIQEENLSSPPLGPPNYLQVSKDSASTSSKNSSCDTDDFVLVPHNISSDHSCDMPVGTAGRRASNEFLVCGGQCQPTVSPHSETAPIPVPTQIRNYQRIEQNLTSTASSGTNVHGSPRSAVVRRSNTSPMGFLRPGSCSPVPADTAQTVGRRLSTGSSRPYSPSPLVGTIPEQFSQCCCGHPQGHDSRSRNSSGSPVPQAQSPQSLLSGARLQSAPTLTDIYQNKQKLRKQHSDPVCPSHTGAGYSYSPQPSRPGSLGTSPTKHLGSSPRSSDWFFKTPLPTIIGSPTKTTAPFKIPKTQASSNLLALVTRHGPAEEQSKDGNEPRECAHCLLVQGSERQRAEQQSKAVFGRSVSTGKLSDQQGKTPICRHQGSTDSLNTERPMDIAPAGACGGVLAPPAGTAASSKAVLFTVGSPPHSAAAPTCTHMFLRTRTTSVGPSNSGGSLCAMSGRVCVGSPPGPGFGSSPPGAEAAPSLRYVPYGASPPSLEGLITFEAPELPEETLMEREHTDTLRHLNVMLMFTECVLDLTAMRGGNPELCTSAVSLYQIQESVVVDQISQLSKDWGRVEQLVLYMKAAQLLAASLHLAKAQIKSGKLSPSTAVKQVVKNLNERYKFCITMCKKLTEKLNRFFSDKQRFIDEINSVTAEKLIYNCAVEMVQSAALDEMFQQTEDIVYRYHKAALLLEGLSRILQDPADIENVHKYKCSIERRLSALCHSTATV
Summary of the method: as §1

[5] = molecular target: T5, 380 human recombinant protein kinases (Homo sapiens, UniProt P37023); conditions: ALK1(h), read-out: Inhibition rate
T5 construct: purchased Eurofins (Celle Lévescault)
Summary of the method: as §1

[6] = molecular target: T6, 380 human recombinant protein kinases (Homo sapiens, UniProt P07947); conditions: Yes(h), read-out: Inhibition rate (%)
T6 construct: purchased Eurofins (Celle Lévescault)
Summary of the method: as §1

[7] = molecular target: T7, 380 human recombinant protein kinases (Homo sapiens, UniProt Q96J92); conditions: WNK4(h), read-out: Inhibition rate (%)
T7 construct: purchased Eurofins (Celle Lévescault)
Summary of the method: as §1

[8] = molecular target: T8, 380 human recombinant protein kinases (Homo sapiens, UniProt P11802); conditions: CDK4/cyclinD3(h), read-out: Inhibition rate
T8 construct: purchased Eurofins (Celle Lévescault)
Summary of the method: as §1

[9] = molecular target: T9, 380 human recombinant protein kinases (Homo sapiens, UniProt Q9Y463); conditions: DYRK1B(h), read-out: Inhibition rate
T9 construct: purchased Eurofins (Celle Lévescault)
Summary of the method: as §1

[10] = molecular target: T10, 380 human recombinant protein kinases (Homo sapiens, UniProt P51812); conditions: Rsk2(h), read-out: Inhibition rate (%)
T10 construct: purchased Eurofins (Celle Lévescault)
Summary of the method: as §1

[11] = molecular target: T11, 380 human recombinant protein kinases (Homo sapiens, UniProt P30291); conditions: Wee1(h), read-out: Inhibition rate (%)
T11 construct: purchased Eurofins (Celle Lévescault)
Summary of the method: as §1

[12] = molecular target: T12, 380 human recombinant protein kinases (Homo sapiens, UniProt O96013); conditions: PAK4(h), read-out: Inhibition rate
T12 construct: purchased Eurofins (Celle Lévescault)
Summary of the method: as §1

T8 sequence (P11802 whole entry): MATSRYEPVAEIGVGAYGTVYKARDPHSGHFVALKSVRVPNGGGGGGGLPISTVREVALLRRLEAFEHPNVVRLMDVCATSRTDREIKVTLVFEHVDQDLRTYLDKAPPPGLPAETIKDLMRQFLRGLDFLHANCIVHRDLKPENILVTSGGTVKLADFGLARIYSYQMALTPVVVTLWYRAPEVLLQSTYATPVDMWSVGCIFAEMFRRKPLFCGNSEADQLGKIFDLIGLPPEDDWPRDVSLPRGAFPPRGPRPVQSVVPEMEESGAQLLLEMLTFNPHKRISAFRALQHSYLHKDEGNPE
T12 sequence (O96013 whole entry): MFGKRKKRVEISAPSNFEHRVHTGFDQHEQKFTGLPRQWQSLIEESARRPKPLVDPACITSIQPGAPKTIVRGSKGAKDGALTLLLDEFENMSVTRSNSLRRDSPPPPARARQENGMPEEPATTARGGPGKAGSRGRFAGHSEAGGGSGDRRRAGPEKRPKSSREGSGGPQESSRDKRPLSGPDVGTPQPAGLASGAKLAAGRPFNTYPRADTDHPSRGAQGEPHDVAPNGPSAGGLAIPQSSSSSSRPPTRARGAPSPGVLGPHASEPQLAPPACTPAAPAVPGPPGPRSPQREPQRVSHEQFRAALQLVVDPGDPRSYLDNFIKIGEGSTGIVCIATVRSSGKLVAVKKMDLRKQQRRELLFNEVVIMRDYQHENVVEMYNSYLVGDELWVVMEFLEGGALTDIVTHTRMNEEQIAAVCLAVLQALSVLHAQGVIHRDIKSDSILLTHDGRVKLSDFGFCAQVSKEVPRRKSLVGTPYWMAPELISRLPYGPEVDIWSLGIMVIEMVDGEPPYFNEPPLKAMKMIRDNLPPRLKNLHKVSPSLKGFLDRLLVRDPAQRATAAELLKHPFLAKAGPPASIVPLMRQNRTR
T2 sequence (Q14680 whole entry): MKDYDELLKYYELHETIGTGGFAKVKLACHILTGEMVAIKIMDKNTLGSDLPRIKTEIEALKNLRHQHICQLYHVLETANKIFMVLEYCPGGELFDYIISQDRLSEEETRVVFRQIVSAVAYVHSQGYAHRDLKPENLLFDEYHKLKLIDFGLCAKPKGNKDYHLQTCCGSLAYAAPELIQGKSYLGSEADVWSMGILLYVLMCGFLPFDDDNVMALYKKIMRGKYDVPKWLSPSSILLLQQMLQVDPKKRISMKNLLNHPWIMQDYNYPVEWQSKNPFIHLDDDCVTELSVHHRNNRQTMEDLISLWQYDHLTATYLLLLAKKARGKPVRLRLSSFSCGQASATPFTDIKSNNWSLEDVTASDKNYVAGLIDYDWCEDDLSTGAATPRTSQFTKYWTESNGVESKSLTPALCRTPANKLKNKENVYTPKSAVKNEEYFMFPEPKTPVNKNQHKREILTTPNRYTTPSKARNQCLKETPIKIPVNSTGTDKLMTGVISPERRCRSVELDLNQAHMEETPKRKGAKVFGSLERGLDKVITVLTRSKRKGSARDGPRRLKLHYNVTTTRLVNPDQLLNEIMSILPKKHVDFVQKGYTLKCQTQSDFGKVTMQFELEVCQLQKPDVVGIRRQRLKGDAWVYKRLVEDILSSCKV
T5 sequence (P37023 22-503): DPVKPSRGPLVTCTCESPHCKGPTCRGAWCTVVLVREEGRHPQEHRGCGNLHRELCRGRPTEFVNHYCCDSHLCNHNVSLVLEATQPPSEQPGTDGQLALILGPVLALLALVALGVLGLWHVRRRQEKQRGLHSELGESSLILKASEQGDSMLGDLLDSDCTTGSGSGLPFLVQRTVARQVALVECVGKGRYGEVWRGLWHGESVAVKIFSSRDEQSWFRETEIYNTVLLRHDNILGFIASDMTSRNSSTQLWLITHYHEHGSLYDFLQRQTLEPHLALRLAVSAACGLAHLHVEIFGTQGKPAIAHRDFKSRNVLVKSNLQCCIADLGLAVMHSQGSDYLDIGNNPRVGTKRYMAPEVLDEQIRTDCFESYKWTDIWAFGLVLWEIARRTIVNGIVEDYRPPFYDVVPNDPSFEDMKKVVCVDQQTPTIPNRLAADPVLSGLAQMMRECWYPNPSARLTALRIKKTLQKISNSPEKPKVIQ
T7 sequence (Q96J92 whole entry): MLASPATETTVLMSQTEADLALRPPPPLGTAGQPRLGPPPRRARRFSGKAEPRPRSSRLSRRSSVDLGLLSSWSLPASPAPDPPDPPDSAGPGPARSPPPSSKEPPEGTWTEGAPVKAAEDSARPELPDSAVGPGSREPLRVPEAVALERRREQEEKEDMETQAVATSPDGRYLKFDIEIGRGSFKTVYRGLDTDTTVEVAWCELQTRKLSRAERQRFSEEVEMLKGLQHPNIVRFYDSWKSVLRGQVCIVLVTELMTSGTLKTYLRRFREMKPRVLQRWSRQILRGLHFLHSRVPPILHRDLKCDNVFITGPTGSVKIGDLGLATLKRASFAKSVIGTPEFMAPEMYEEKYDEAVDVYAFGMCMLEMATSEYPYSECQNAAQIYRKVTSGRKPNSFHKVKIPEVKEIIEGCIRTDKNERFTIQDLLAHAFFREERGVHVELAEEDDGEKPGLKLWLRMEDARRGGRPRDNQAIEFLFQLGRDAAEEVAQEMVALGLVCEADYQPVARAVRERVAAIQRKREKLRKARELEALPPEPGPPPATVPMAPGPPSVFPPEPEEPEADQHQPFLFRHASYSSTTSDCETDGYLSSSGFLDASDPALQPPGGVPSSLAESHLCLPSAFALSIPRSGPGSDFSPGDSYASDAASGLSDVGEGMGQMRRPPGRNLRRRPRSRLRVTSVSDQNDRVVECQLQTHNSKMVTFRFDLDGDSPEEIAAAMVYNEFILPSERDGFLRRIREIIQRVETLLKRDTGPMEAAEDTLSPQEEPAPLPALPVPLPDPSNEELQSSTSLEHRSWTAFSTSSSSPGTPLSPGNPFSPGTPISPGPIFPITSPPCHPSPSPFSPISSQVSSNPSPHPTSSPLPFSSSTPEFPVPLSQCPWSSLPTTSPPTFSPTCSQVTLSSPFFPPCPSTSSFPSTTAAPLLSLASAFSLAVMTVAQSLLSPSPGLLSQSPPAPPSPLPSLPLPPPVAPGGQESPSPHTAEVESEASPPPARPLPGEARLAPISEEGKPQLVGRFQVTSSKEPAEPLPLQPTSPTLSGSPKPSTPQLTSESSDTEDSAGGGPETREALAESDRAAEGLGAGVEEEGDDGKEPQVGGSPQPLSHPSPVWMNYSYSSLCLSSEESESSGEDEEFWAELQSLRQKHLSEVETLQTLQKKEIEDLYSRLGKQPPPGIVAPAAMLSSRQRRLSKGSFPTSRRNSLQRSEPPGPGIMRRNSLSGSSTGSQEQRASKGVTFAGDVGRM
T11 sequence (P30291 whole entry): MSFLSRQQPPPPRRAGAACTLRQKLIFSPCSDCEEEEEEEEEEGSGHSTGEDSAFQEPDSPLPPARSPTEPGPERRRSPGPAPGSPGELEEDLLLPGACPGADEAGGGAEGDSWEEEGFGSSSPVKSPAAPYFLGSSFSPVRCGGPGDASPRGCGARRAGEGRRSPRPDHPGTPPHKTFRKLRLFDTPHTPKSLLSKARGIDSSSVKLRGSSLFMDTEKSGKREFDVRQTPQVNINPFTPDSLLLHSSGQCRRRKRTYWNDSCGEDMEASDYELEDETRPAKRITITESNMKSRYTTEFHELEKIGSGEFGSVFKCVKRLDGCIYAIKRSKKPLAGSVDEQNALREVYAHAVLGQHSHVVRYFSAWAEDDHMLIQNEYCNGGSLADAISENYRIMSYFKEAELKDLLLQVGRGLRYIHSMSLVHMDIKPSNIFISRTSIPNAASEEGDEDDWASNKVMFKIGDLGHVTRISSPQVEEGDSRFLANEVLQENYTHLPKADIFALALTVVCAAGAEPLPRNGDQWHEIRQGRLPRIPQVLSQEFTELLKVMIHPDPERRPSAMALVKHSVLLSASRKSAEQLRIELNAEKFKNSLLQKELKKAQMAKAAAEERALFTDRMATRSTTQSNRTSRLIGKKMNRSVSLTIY
T9 sequence (Q9Y463 whole entry): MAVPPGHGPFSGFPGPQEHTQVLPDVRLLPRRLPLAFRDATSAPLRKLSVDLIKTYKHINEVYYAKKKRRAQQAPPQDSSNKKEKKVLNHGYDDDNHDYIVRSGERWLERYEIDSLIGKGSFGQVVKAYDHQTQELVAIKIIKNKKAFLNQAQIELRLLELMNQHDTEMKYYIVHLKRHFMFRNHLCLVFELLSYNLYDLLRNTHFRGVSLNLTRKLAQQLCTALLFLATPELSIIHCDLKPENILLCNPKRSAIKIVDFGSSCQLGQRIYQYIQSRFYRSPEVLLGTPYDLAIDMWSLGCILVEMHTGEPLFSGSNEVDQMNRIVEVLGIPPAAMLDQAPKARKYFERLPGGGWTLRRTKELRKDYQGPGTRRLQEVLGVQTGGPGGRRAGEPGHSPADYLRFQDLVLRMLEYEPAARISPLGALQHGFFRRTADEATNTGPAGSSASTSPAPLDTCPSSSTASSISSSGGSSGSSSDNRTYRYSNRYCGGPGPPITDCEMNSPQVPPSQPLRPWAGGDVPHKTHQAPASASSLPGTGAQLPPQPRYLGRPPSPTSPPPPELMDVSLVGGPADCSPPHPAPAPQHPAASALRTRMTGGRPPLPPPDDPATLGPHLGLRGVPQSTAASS

SMILES: C=CC(=O)Nc1cc(-c2cc(-c3cc4c([nH]3)CCNC4=O)ccn2)ccc1OC(F)(F)F [compound 11]
- inhibition at 0.01 µM ([1]; 10 nM): -9%
- inhibition at 0.1 µM ([1]; 100 nM): -4%
- inhibition at 1 µM ([1]; 1000 nM): -13%
- inhibition at 0.01 µM ([2]; 10 nM): -7%
- inhibition at 0.1 µM ([2]; 100 nM): 5%
- inhibition at 1 µM ([2]; 1000 nM): 30%
- inhibition at 0.01 µM ([3]; 10 nM): 51%
- inhibition at 0.1 µM ([3]; 100 nM): 74%
- inhibition at 1 µM ([3]; 1000 nM): 80%
- inhibition at 0.01 µM ([4]; 10 nM): 6%
- inhibition at 0.1 µM ([4]; 100 nM): 6%
- inhibition at 1 µM ([4]; 1000 nM): 5%
- inhibition at 0.01 µM ([5]; 10 nM): -16%
- inhibition at 0.1 µM ([5]; 100 nM): -12%
- inhibition at 1 µM ([5]; 1000 nM): -9%
- inhibition at 0.01 µM ([6]; 10 nM): -2%
- inhibition at 0.1 µM ([6]; 100 nM): 0%
- inhibition at 1 µM ([6]; 1000 nM): -3%
- inhibition at 0.01 µM ([7]; 10 nM): 6%
- inhibition at 0.1 µM ([7]; 100 nM): 6%
- inhibition at 1 µM ([7]; 1000 nM): 3%
- inhibition at 0.01 µM ([8]; 10 nM): 3%
- inhibition at 0.1 µM ([8]; 100 nM): 0%
- inhibition at 1 µM ([8]; 1000 nM): 2%
- inhibition at 0.01 µM ([9]; 10 nM): 21%
- inhibition at 0.1 µM ([9]; 100 nM): 77%
- inhibition at 1 µM ([9]; 1000 nM): 97%
- inhibition at 0.01 µM ([10]; 10 nM): -6%
- inhibition at 0.1 µM ([10]; 100 nM): -11%
- inhibition at 1 µM ([10]; 1000 nM): -3%
- inhibition at 0.01 µM ([11]; 10 nM): -11%
- inhibition at 0.1 µM ([11]; 100 nM): -11%
- inhibition at 1 µM ([11]; 1000 nM): -4%
- inhibition at 0.01 µM ([12]; 10 nM): 2%
- inhibition at 0.1 µM ([12]; 100 nM): -2%
- inhibition at 1 µM ([12]; 1000 nM): 2%
